Measured values taken from ChEMBL document CHEMBL4130613, “Identification and Proposed Relative and Absolute Configurations of Niphimycins C-E from the Marine-Derived Streptomyces sp. IMB7-145 by Genomic Analysis” (J Nat Prod, 2018).
Values after ≈ are worked out from the molar mass of the structure shown.

How the values were obtained:
Format in all cases: functional
[1] = system: Mycobacterium tuberculosis; assay: Antibacterial activity against isonizaid/rifampicin-resistant Mycobacterium tuberculosis isolate FJ05120 after 18 hrs by agar dilution method; conditions: isolate FJ05120, 18 h
[2] = system: Mycobacterium tuberculosis; assay: Antibacterial activity against isonizaid/rifampicin/streptomycin/ethambutol-resistant Mycobacterium tuberculosis isolate FJ05436 after 18 hrs by agar dilution method; conditions: isolate FJ05436, 18 h
[3] = system: Mycobacterium tuberculosis; assay: Antibacterial activity against isonizaid/rifampicin/streptomycin/ethambutol-resistant Mycobacterium tuberculosis isolate FJ05195 after 18 hrs by agar dilution method; conditions: isolate FJ05195, 18 h

Compound	MIC [1]	MIC [2]	MIC [3]
CNC(=N)NCCC/C=C/CCC[C@H](C)C[C@H](C)[C@H]1OC(=O)[C@H](C)[C@H](O)/C=C/[C@H](C)[C@H](O)C[C@H](O)[C@H](C)[C@@H](O)CC[C@H](C)[C@H](O)C[C@]2(O)O[C@H](C[C@@H](OC(=O)CC(=O)O)C[C@H](O)C[C@@H](O)[C@H](C)[C@H](O)/C=C/C=C/[C@@H]1C)C[C@H](O)[C@H]2O	4 to 16 µg/mL (≈ 3.5 to 14 µM)	4 to 32 µg/mL (≈ 3.5 to 28 µM)	4 to 32 µg/mL (≈ 3.5 to 28 µM)
CNC(=N)NCCC/C=C/CCC[C@H](C)C[C@H](C)[C@H]1OC(=O)[C@H](C)[C@H](O)/C=C/[C@H](C)[C@H](O)C[C@H](O)[C@H](C)[C@@H](O)CC[C@H](C)[C@H](O)C[C@]2(O)O[C@H](C[C@@H](O)C[C@H](OC(=O)CC(=O)O)C[C@@H](O)[C@H](C)[C@H](O)/C=C/C=C/[C@@H]1C)C[C@H](O)[C@H]2O	4 to 16 µg/mL (≈ 3.5 to 14 µM)	4 to 32 µg/mL (≈ 3.5 to 28 µM)	4 to 32 µg/mL (≈ 3.5 to 28 µM)
